The test system of data set [1] is C. albicans RCMB 005036. As to the kind of experiment: Agar well diffusion, inhibition zone. Also noted: key: –: -: No activity under the screening conditions. The format is cell-based, Candida albicans. To be noted: 1 mg/mL, mean of three values. On the technique in general: In agar diffusion tests the substance spreads into inoculated agar from a disc or well.
In data set [2] the test system is (THLE-2) normal liver cell line. As to the kind of experiment: Cytotoxic screening on normal liver cells. The format is cell-based. To be noted: Homo sapiens, mean of three values, read-out: IC50 (Mean ± SEM).
The target in data set [3] is VEGFR-2 (Homo sapiens, UniProt P35968). As to the kind of experiment: In-vitro enzyme assay on VEGFR-2. To be noted: read-out: IC50 (Mean ± SEM). The data set is classed as biochemical.
For data set [4], the system named is S. pneumonia RCMB 010010. As to the kind of experiment: Minimum inhibitory concentration, modified agar well diffusion. The format is cell-based. The settings on record: Streptococcus pneumoniae, RCMB010010, mean of three values, read-out: MIC (Mean ± SEM).
Data set [5] concerns human liver cancer cell line (HepG-2). As to the kind of experiment: MTT anticancer assay. The data set is classed as cell-based. The settings on record: HepG2, HePG-2 cancer liver cell line, mean of three values, read-out: IC50 (Mean ± SEM).
The test system of data set [6] is E. coli RCMB 010052. As to the kind of experiment: Agar well diffusion, inhibition zone. The format is cell-based, Escherichia coli. To be noted: mean of three values; for Mean diameter of inhibition zone (Mean ± SEM): 1 mg/mL. Also noted: key to Mean diameter of inhibition zone (Mean ± SEM): –: -: No activity under the screening conditions.
In data set [7] the test system is B. subtilis RCMB 010067. As to the kind of experiment: Minimum inhibitory concentration, modified agar well diffusion. The format is cell-based. The settings on record: Bacillus subtilis, RCMB010067, mean of three values, read-out: MIC (Mean ± SEM).
In data set [8] the test system is A. fumigatus RCMB 002568. Described as above. The data set is classed as cell-based. To be noted: Aspergillus fumigatus, RCMB002568, mean of three values, read-out: MIC (Mean ± SEM).
Data set [9] has as its system P. aeruginosa RCMB 010043. As to the kind of experiment: Agar well diffusion, inhibition zone. To be noted: mean of three values; for Mean diameter of inhibition zone (Mean ± SEM): 1 mg/mL. The format is cell-based, Pseudomonas aeruginosa. Also noted: key to Mean diameter of inhibition zone (Mean ± SEM): –: -: No activity under the screening conditions.
Data set [10] deals with E. coli DNA gyrase B (Escherichia coli, UniProt P0AES6). As to the kind of experiment: In-vitro enzyme assay on DNA gyrase B. The format is biochemical.
In data set [11] the test system is P. aeruginosa RCMB 010043. As to the kind of experiment: Minimum inhibitory concentration, modified agar well diffusion. To be noted: Pseudomonas aeruginosa, RCMB010043, mean of three values, read-out: MIC (Mean ± SEM). The format is cell-based.
The subject of data set [12] is S. pneumonia RCMB 010010. As to the kind of experiment: Agar well diffusion, inhibition zone. The data set is classed as cell-based, Streptococcus pneumoniae. Also noted: key to Mean diameter of inhibition zone (Mean ± SEM): –: -: No activity under the screening conditions. The settings on record: mean of three values; for Mean diameter of inhibition zone (Mean ± SEM): 1 mg/mL.

Data set [13] deals with B. subtilis RCMB 010067. As to the kind of experiment: Agar well diffusion, inhibition zone. The data set is classed as cell-based, Bacillus subtilis. Also noted: key to Mean diameter of inhibition zone (Mean ± SEM): –: -: No activity under the screening conditions. To be noted: mean of three values; for Mean diameter of inhibition zone (Mean ± SEM): 1 mg/mL.
In data set [14] the test system is A. fumigatus RCMB 002568. As to the kind of experiment: Agar well diffusion, inhibition zone. The format is cell-based, Aspergillus fumigatus. On the set-up: key to Mean diameter of inhibition zone (Mean ± SEM): –: -: No activity under the screening conditions. To be noted: mean of three values; for Mean diameter of inhibition zone (Mean ± SEM): 1 mg/mL.
Data set [15] relates to E. coli RCMB 010052. As to the kind of experiment: Minimum inhibitory concentration, modified agar well diffusion. To be noted: Escherichia coli, RCMB010052, mean of three values, read-out: MIC (Mean ± SEM). The format is cell-based.
The subject of data set [16] is tested bacterial and fungal strains. As to the kind of experiment: Antimicrobial screening, summary over all tested strains. To be noted: 1 mg/mL. The format is cell-based. An excerpt: All bacterial and fungal strains were received from the culture collection of the Regional Center for Mycology and Biotechnology (RCMB), Al-Azhar University, Cairo, Egypt. All target derivatives were screened in-vitro opposite to various kinds of bacteria, Gram-positive bacteria (Streptococcus pneumoniae and Bacillus subtilis) and Gram-negative bacteria (Pseudomonas aeruginosa and Escherichia coli) and for their Antifungal activities against Aspergillus fumigatus and Candida albicans, respectively. Ampicillin and gentamycin were used as standard antibacterial drugs while amphotericin B was used as reference antifungal drug. The diameter of inhibition zone (mm) was measured for the biological activity using the diffusion technique. The promising compounds were further investigated to evaluate their antimicrobial activity expressed in terms of minimum inhibitory concentration (MIC) using the modified agar well diffusion method.
The newly prepared targets were subjected for in-vitro antibacterial screening against Gram-positive bacteria (Streptococcus pneumonia and Bacillus subtilis) and Gram-negative bacteria (Pseudomonas aeruginosa and Escherichia coli). […] The compounds’ solutions of concentrations (1 mg/mL) were evaluated against the different microorganism’s and the inhibition zone (IZ) used diameter in mm for the biologically activity (agar well diffusion method).

Converted amounts (≈) assume the structure as drawn.

VEGFR-2, sequence (P35968 20-1356): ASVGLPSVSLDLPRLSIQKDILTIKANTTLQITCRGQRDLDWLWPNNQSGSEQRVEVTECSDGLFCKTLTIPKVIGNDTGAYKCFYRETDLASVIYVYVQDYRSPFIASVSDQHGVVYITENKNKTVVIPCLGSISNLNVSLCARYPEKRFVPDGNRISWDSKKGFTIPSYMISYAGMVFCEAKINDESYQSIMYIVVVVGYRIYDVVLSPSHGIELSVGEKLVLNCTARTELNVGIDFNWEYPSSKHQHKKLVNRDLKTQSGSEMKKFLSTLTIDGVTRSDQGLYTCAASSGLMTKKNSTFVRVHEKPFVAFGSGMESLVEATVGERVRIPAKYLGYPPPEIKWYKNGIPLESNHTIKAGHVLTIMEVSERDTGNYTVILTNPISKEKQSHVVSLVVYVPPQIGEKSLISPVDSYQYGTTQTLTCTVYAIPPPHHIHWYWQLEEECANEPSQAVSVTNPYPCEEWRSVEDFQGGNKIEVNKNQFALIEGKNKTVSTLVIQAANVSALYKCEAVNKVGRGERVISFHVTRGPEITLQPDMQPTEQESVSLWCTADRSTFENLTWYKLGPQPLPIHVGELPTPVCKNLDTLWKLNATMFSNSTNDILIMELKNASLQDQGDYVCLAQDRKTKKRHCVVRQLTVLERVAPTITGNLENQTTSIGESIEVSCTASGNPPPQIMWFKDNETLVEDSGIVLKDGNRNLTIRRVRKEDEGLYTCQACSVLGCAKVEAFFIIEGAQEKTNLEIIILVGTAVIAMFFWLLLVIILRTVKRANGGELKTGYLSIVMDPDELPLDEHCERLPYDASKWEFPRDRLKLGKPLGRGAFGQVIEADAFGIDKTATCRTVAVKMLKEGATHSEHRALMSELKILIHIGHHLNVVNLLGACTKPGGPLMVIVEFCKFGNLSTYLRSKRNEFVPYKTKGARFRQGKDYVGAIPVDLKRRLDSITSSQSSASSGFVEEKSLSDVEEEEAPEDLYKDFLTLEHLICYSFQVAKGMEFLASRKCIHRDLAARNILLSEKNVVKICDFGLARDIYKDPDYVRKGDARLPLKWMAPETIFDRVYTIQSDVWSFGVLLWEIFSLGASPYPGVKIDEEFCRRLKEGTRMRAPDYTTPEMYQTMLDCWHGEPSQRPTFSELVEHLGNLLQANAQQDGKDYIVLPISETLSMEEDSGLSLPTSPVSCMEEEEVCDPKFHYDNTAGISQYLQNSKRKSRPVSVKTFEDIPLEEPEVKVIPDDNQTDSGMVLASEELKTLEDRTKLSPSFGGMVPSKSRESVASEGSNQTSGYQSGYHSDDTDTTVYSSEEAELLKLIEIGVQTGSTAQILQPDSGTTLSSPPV

For orientation: IC50 means the concentration that inhibits the measured activity by half. As usually defined, the melting point is the temperature of the solid-liquid transition. Usually MIC stands for the least concentration at which growth counts as inhibited. In general, zone of inhibition refers to the size of the clear area around the sample on an inoculated plate. For the compound `NC1=NNC(=O)C1=NNN1C(=O)c2ccccc2C1=O` [Compound 4, 2-(2-(3-Amino-5-oxo-1H-pyrazol-4(5H)-ylidene)hydrazinyl)isoindoline-1,3-dione], the melting point was 289 to 290 °C. In addition, the “Mean diameter of inhibition zone (Mean ± SEM)” value in data set [1] was “–”. Besides, the IC50 in data set [2] was 874.31 ± 0.22 µg/mL (≈ 3210 µM). Besides, in data set [3], the 50% inhibitory concentration (IC50) worked out at 90 nM. Also, the MIC in data set [4] came out at 1.95 ± 0.23 µg/mL (≈ 7.16 µM). In [5], the 50% inhibitory concentration (IC50) worked out at 4.22 ± 1.04 µg/mL (≈ 15.5 µM). Besides, the zone of inhibition at 1000 µg/mL in [6] (Escherichia coli, RCMB010052, 1 mg/mL, read-out: Mean diameter of inhibition zone (Mean ± SEM)) is 24.5 ± 0.3 mm. In addition, in [7], the MIC turned out to be 0.98 ± 0.42 µg/mL (≈ 3.6 µM). Also, in data set [8], the minimum inhibitory concentration (MIC) was determined as 1.95 ± 0.28 µg/mL (≈ 7.16 µM). In addition, the zone of inhibition at 1000 µg/mL in data set [9] (Pseudomonas aeruginosa, RCMB010043, 1 mg/mL, read-out: Mean diameter of inhibition zone (Mean ± SEM)) was 19.2 ± 0.5 mm. The compound further showed an IC50 in data set [10] of 340 ± 630 nM. In data set [11], the MIC came to 0.98 ± 0.02 µg/mL (≈ 3.6 µM). Also, the zone of inhibition at 1000 µg/mL in data set [12] (Streptococcus pneumoniae, RCMB010010, 1 mg/mL, read-out: Mean diameter of inhibition zone (Mean ± SEM)) amounted to 23 ± 0.4 mm. Besides, the zone of inhibition at 1000 µg/mL in [13] (Bacillus subtilis, RCMB010067, 1 mg/mL, read-out: Mean diameter of inhibition zone (Mean ± SEM)) was 25.1 ± 0.5 mm. In addition, the zone of inhibition at 1000 µg/mL in data set [14] (Aspergillus fumigatus, RCMB002568, 1 mg/mL, read-out: Mean diameter of inhibition zone (Mean ± SEM)) is 23.1 ± 0.5 mm. Moreover, the MIC in [15] is 0.49 ± 0.39 µg/mL (≈ 1.8 µM).

In the case of `O=C1Cn2nc(O)c(N=NN3C(=O)c4ccccc4C3=O)c2N1` [Compound 5, 2-((6-Hydroxy-2-oxo-2,3-dihydro-1H-imidazo[1,2-b]pyrazol-7-yl)diazenyl)-isoindoline-1,3-dione], the melting point lay in the range of 157 to 158 °C. For the same compound, in data set [1], the “Mean diameter of inhibition zone (Mean ± SEM)” value is listed as “–”. Also, the IC50 in data set [2] worked out at 597.83 ± 0.14 µg/mL (≈ 1910 µM). For the same compound, in [16], the “antimicrobial activity, overall” value is recorded as “no antimicrobial activities”. Also, the concentration for half-maximal inhibition (IC50) in [5] is 31.8 ± 1.56 µg/mL (≈ 102 µM). Besides, the “Mean diameter of inhibition zone (Mean ± SEM)” value in data set [6] was “–”. For the same compound, the “Mean diameter of inhibition zone (Mean ± SEM)” value in data set [9] is listed as “–”. Moreover, the “Mean diameter of inhibition zone (Mean ± SEM)” value in [12] is “–”. Also, the “Mean diameter of inhibition zone (Mean ± SEM)” value in data set [13] was “–”. The “Mean diameter of inhibition zone (Mean ± SEM)” value in [14] is “–”.

`Nc1c(C(=O)c2ccccc2)cnc2c(N=NN3C(=O)c4ccccc4C3=O)c(O)nn12` [Compound 14, 2-[(7-Amino-6-benzoyl-2-hydroxypyrazolo[1,5-a]pyrimidin-3-yl)diazenyl]-1H-isoindole-1,3(2H)-dione]: the melting point is 295 to 297 °C. For the same compound, the “Mean diameter of inhibition zone (Mean ± SEM)” value in [1] is recorded as “–”. Besides, the half-inhibitory concentration (IC50) in [2] is 725.44 ± 0.15 µg/mL (≈ 1700 µM). Also, the “antimicrobial activity, overall” value in data set [16] is recorded as “no antimicrobial activities”. Moreover, the IC50 in data set [5] stood at 34.8 ± 1.26 µg/mL (≈ 81.4 µM). Also, in data set [6], the “Mean diameter of inhibition zone (Mean ± SEM)” value is listed as “–”. The “Mean diameter of inhibition zone (Mean ± SEM)” value in data set [9] is given as “–”. Besides, the “Mean diameter of inhibition zone (Mean ± SEM)” value in [12] is listed as “–”. The “Mean diameter of inhibition zone (Mean ± SEM)” value in data set [13] is “–”. Moreover, the “Mean diameter of inhibition zone (Mean ± SEM)” value in [14] is “–”.

The values above are taken from PMC6691772, “Novel phthalimide based analogues: design, synthesis, biological evaluation, and molecular docking studies” (Journal of Enzyme Inhibition and Medicinal Chemistry, 2019).
